Data taken from ChEMBL document CHEMBL1201862, “PubChem BioAssay data set” (2004).
The source made the active and inactive calls.

What was measured:
[1] = cytotoxicity in HEK-293T cells, dose response, cytotoxicity control for TCR NF-kB inhibitor project, luminescence, T-cell screen hits (AID 489026); type: functional, cell-based;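 note: cells exposed to compound about 14 hours before the viability readout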
INS1 = assay: beta cell apoptosis inhibitors, cytokine rescue, dose response, luminescence, retest (AID 449756); type: functional, cell-based; settings: Rattus norvegicus;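 note: cell death triggered by IL-1 beta plus TNF-alpha plus IFN-gamma mixture; protective hits raise ATP signal compared with cytokine alone wells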
[2] = molecular target: Heat shock protein HSP 90-alpha (Homo sapiens, UniProt P07900); type: functional, organism-based
[3] = molecular target: T1, Heat shock factor protein 1 (Mus musculus, UniProt P38532); assay: HSF1 potentiators in luciferase reporter cells, confirmation, cell-based, NIH3T3, luminescence, dose retest (AID 435004); type: functional;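 note: stress induced by proteasome inhibitor MG132 added 30 min after compound; luciferase reporter driven by HSF1 response element in NIH3T3 cells; actives raise luminescence as potentiators of the MG132 stress response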
T1 sequence (P38532 whole entry): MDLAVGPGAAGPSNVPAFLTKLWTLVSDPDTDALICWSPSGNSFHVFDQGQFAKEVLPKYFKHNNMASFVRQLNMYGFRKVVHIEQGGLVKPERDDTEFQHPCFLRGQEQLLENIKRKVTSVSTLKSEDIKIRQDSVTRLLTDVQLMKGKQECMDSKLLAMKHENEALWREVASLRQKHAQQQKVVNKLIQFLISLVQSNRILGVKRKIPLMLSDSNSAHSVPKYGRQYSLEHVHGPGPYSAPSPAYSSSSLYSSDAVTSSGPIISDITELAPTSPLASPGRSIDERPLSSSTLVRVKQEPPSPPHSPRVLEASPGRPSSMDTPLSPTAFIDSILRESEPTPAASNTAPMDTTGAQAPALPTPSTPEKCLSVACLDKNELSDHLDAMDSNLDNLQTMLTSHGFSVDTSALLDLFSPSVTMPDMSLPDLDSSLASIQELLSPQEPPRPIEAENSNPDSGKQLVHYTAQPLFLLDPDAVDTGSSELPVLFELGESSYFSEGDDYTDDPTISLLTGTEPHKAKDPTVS

Prothrombin = Prothrombin (Bos taurus, UniProt P00735); assay: thrombin inhibition, dose response, biochemical, fluorescence polarization, uHTS hits (AID 602369); type: functional
[4] = molecular target: 26S proteasome non-ATPase regulatory subunit 14 (Homo sapiens, UniProt O00487); assay: inhibition of proteasome subunit RPN11 – biochemical, fluorescence polarization, uHTS hits, confirmation (AID 602368); type: functional
[5] = molecular target: 72 kDa type IV collagenase (Homo sapiens, UniProt P08253); assay: Dose Response validation of uHTS RPN11 inhibitor hits using a MMP-2 Fluorescence assay.; type: functional
[6] = molecular target: T2, RNA-binding protein pos-1 (Caenorhabditis elegans, UniProt G5EF15); assay: inhibitors of POS-1/mex-3 RNA binding, dose response, biochemical, fluorescence polarization (AID 1964);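 note: purified POS-1 fused to maltose binding protein made in E. coli; potency of compounds blocking POS-1 binding to fluorescent RNA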
T2 sequence (G5EF15 whole entry): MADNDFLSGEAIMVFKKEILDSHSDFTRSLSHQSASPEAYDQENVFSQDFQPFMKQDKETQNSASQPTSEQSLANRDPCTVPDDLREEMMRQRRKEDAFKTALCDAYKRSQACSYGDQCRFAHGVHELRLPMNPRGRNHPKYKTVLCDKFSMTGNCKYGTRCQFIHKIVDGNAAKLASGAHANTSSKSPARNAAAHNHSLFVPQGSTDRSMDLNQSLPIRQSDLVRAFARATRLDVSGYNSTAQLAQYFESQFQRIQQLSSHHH

Cytochrome P450 2C9 = Cytochrome P450 2C9 (Homo sapiens, UniProt P11712)
[7] = molecular target: T3, Zinc finger protein mex-5 (Caenorhabditis elegans, UniProt Q9XUB2); assay: MEX-5/TCR-2 RNA interaction inhibitors, dose response, biochemical, C. elegans, fluorescence polarization (AID 1960)
T3 sequence (Q9XUB2 whole entry): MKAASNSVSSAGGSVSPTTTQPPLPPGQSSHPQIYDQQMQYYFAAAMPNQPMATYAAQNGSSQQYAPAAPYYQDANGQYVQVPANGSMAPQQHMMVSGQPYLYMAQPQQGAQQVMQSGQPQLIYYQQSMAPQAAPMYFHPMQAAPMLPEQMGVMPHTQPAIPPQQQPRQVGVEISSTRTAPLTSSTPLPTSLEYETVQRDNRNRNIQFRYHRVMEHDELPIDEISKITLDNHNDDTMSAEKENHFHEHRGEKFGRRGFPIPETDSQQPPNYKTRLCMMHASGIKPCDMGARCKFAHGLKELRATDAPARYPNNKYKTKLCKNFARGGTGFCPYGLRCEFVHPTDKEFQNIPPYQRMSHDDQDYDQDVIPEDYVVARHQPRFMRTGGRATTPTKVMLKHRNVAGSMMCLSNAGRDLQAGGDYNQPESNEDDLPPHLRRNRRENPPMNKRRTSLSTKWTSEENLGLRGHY

[8] = molecular target: Corticotropin-releasing factor receptor 2/Corticotropin-releasing factor-binding protein (Homo sapiens, UniProt Q13324+P24387); assay: activators of CRF receptor 2 with binding protein – uHTS hits, confirmation (AID 602473); type: functional; settings: read-out: EC50_Mean
Cytochrome P450 3A4 = Cytochrome P450 3A4 (Homo sapiens, UniProt P08684);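 note: CYP3A4 tested as one member of a cytochrome P450 panel screen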
CAAX prenyl protease 2 = CAAX prenyl protease 2 (Homo sapiens, UniProt Q9Y256); assay: human Rce1 protease inhibitors, dose response, biochemical, yeast membranes, quenched-peptide fluorescence, cherry-pick (AID 588849)
[9] = control 3'UTR Renilla luciferase suppression, dose response, counter-screen for Shn3 inhibitor project, cell-based, Clone20-Shn3RL, cherry-picked (AID 624133); type: functional
[10] = cytotoxicity toward NIH3T3 fibroblasts, dose response, counter-screen, cell-based, ATP luminescence, mouse fibroblasts (AID 2010); type: functional;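 note: cells exposed to compound for about 90 hours before reading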
[11] = Shn3 3'UTR reporter inhibitors, dose response, cell-based, Clone20 osteoblasts, firefly luciferase, cherry-picked (AID 624132); type: functional;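 note: firefly luciferase luminescence from reporter carrying the Shn3 3'UTR in osteoblasts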
[12] = molecular target: T4, Microphthalmia-associated transcription factor (Homo sapiens, UniProt O75030); assay: TRPM1 promoter luciferase signal decrease, dose response, MITF inhibitor project, cell-based, SK-MEL-5, cherry-picked, set 3 (AID 493073); type: functional
T4 sequence (O75030 whole entry): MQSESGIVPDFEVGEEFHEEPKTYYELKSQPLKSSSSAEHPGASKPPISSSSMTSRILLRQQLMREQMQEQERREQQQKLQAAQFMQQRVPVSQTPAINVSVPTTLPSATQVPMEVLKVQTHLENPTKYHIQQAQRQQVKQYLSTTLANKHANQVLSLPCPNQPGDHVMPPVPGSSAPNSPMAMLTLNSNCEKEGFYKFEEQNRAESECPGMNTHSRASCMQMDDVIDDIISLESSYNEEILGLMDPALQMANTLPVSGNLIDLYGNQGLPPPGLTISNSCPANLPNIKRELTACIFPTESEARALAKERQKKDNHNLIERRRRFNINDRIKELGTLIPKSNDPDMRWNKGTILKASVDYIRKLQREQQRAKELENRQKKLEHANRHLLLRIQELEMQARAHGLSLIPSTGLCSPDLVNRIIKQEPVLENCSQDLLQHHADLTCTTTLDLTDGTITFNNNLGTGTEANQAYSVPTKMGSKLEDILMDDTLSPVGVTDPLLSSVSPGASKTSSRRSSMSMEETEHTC

A-375 [13] = assay: A375 melanoma cell viability reduction, dose response, counter-screen for MITF modulator project, cherry-pick samples, set 2 (AID 540335); type: functional, cell-based; settings: Homo sapiens
A-375 [14] = assay: MITF: Counter assay: A375 proliferation Measured in Cell-Based System Using Plate Reader - 2084-03_Inhibitor_Dose_DryPowder_Activity. [Related pubchem assays (depositor defined):AID488944]; type: functional; settings: Homo sapiens
[15] = Luminescence Cell-Based Dose Retest to Confirm Inhibitors of Cancer Stem Cells. [Related pubchem assays (depositor defined):AID2717, AID2721]; type: functional; settings: Homo sapiens
[16] = HepG2 cell cytotoxicity, dose response, cytotoxicity control for Shn3 inhibitor project, CellTiter-Glo, cherry-picked (AID 624134); type: functional, cell-based
[17] = inhibitors of intracellular T. cruzi replication, confirmation, NIH3T3 host cells, beta-gal luminescence (AID 2044); type: functional, cell-based;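 note: intracellular parasites grown in NIH/3T3 mouse fibroblasts as host cells; luminescent beta-galactosidase reporter signal from transgenic T. cruzi replicating inside host cells; inhibitors lower the luminescence signal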
Phospholipase D1 = Phospholipase D1 (Homo sapiens, UniProt Q13393); assay: PLD1 inhibitor potency in cells, dose response (AID 602151); type: functional;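 note: cellular PLD1 assay in Calu-1 cells stimulated with PMA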
Phospholipase D2 = Phospholipase D2 (Homo sapiens, UniProt O14939); assay: PLD2 inhibitor potency in cells, dose response (AID 602147); type: functional;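 note: cellular assay in HEK293 cells overexpressing GFP-tagged PLD2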
Aurora kinase B = Aurora kinase B (Homo sapiens, UniProt Q96GD4); type: functional
[18] = molecular target: Calcium/calmodulin-dependent protein kinase type II subunit beta (Homo sapiens, UniProt Q13554); type: functional
[19] = molecular target: Calcium/calmodulin-dependent protein kinase type II subunit gamma (Homo sapiens, UniProt Q13555); type: functional
[20] = molecular target: Protein kinase C delta type (Homo sapiens, UniProt Q05655); type: functional
[21] = molecular target: Homeodomain-interacting protein kinase 2 (Homo sapiens, UniProt Q9H2X6); type: functional;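 note: measured within a kinome-wide kinase profiling panel, HIPK2 being one panel member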
[22] = molecular target: Serine/threonine-protein kinase pim-1 (Homo sapiens, UniProt P11309); type: functional
[23] = molecular target: Dual specificity protein kinase CLK4 (Homo sapiens, UniProt Q9HAZ1); type: functional
[24] = molecular target: Glycogen synthase kinase-3 beta (Homo sapiens, UniProt P49841); type: functional;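 note: value comes from a broad kinome profiling panel, with GSK3B as the panel member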
[25] = molecular target: cAMP-dependent protein kinase catalytic subunit alpha (Homo sapiens, UniProt P17612); type: functional
[26] = molecular target: Mitogen-activated protein kinase kinase kinase kinase 4 (Homo sapiens, UniProt O95819); type: functional
[27] = molecular target: Cell division cycle 7-related protein kinase (Homo sapiens, UniProt O00311); type: functional;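 note: value obtained from a kinome-wide kinase panel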
[28] = molecular target: Interleukin-1 receptor-associated kinase 4 (Homo sapiens, UniProt Q9NWZ3); type: functional
[29] = molecular target: T5, V-type proton ATPase subunit c' (Saccharomyces cerevisiae S288c, UniProt P32842); assay: Dose Response of Small Molecules that Regulate V-ATPase Proton Transport in Yeast using pHLuorin, Powder Set1.; type: functional; settings: read-out: EC50_MICROM
[30] = molecular target: T5, V-type proton ATPase subunit c'; assay: Dose Response with BCECF Assay for V-ATPase inhibitors that increase vacuolar pH, Powder Set 1.; type: functional; settings: read-out: EC50_MICROM

T5 sequence (P32842 whole entry): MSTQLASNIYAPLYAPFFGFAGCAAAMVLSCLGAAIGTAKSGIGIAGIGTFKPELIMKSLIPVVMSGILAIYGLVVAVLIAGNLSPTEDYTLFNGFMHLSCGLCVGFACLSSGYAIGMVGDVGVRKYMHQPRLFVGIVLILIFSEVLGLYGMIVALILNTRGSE
Chain of Cytochrome P450 3A4 (P08684 whole entry): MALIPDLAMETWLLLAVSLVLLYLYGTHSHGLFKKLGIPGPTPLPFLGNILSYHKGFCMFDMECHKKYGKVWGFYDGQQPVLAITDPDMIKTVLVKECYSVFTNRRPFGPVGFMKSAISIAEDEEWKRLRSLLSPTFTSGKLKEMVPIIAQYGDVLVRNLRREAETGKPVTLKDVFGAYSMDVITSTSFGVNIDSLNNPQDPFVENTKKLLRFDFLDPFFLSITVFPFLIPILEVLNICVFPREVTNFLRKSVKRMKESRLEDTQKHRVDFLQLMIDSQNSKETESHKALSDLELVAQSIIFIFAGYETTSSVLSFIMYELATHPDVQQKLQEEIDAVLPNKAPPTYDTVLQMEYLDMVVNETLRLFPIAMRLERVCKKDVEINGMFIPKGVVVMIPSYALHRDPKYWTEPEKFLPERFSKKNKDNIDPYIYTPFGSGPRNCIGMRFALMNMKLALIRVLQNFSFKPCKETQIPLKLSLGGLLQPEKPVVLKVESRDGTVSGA
Chain of Phospholipase D1 (Q13393 whole entry): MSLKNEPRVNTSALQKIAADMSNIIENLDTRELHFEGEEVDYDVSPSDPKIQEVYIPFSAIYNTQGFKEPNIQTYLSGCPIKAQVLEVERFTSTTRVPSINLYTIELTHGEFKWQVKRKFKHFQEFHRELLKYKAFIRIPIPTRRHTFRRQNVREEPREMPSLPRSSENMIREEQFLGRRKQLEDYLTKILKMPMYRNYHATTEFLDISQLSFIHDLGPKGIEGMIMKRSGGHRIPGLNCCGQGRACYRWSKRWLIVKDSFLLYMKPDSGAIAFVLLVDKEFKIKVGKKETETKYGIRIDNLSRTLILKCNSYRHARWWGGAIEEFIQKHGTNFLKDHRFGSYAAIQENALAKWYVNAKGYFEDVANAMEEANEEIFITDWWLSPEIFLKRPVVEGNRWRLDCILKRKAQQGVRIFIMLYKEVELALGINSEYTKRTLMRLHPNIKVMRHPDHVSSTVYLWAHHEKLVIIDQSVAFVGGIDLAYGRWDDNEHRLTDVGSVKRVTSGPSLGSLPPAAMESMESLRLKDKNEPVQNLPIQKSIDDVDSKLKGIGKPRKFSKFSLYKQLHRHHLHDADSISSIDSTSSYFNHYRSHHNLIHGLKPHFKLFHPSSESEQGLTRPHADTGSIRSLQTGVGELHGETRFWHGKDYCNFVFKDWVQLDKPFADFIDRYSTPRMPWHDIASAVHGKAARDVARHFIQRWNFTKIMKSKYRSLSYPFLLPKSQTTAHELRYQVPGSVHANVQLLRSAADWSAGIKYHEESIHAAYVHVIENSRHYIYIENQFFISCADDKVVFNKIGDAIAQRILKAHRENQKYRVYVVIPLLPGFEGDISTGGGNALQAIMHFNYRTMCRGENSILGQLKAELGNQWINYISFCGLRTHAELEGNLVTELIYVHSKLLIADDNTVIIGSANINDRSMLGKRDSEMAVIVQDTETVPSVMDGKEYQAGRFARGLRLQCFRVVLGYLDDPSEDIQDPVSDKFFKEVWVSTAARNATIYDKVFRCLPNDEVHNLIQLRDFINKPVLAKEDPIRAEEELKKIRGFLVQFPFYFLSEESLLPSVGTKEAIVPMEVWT
Chain of Cell division cycle 7-related protein kinase (O00311 whole entry): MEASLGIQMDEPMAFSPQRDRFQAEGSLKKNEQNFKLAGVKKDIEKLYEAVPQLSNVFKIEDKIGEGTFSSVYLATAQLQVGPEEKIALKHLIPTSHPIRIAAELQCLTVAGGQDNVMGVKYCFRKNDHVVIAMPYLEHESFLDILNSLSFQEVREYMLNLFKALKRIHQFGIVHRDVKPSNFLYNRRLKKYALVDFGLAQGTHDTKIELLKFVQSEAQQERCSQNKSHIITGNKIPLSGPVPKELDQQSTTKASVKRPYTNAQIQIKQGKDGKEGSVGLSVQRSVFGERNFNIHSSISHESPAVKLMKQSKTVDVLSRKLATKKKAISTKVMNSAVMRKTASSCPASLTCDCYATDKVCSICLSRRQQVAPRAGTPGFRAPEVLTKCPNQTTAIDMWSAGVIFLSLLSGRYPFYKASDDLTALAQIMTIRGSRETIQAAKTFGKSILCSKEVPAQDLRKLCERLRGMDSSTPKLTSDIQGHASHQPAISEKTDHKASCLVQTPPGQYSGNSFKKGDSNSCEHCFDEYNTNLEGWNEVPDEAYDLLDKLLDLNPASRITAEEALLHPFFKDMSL
Chain of Phospholipase D2 (O14939 whole entry): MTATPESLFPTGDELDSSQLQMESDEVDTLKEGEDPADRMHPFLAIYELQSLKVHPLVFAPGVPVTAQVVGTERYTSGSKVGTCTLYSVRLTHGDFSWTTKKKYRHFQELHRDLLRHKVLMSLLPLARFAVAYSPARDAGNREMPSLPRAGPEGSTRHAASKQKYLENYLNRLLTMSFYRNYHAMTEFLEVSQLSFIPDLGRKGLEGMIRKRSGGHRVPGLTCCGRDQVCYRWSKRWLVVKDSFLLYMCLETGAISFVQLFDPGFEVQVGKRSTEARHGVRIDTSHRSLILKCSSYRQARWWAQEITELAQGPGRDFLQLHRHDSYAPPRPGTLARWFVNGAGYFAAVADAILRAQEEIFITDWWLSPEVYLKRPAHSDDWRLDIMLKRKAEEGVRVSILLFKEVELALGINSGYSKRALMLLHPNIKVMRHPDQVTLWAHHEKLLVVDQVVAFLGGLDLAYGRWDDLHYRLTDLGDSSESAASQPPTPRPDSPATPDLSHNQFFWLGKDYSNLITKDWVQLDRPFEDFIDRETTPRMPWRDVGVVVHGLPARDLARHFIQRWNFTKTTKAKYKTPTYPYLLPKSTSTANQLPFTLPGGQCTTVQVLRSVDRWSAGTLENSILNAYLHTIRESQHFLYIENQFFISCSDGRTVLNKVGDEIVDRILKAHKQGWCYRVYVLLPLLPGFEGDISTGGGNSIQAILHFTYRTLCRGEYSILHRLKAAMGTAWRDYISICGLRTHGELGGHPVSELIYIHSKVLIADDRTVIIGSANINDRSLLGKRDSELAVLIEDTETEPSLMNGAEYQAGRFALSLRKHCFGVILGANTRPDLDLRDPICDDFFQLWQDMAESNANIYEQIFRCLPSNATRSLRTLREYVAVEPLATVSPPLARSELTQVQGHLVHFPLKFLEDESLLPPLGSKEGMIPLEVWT
Chain of Dual specificity protein kinase CLK4 (Q9HAZ1 whole entry): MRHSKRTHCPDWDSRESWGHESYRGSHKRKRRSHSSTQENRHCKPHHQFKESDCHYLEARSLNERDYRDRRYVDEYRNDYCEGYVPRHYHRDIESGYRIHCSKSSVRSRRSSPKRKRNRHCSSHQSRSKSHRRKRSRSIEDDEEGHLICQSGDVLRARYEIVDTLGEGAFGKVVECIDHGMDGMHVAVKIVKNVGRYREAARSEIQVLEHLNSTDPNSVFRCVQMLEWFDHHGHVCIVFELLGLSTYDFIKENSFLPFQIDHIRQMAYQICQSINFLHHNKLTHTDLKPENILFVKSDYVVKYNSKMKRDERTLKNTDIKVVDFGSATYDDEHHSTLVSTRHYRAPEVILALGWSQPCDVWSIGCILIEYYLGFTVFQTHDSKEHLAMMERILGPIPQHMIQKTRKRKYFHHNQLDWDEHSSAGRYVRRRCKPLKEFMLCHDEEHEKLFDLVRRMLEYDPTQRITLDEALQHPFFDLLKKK
Chain of Protein kinase C delta type (Q05655 whole entry): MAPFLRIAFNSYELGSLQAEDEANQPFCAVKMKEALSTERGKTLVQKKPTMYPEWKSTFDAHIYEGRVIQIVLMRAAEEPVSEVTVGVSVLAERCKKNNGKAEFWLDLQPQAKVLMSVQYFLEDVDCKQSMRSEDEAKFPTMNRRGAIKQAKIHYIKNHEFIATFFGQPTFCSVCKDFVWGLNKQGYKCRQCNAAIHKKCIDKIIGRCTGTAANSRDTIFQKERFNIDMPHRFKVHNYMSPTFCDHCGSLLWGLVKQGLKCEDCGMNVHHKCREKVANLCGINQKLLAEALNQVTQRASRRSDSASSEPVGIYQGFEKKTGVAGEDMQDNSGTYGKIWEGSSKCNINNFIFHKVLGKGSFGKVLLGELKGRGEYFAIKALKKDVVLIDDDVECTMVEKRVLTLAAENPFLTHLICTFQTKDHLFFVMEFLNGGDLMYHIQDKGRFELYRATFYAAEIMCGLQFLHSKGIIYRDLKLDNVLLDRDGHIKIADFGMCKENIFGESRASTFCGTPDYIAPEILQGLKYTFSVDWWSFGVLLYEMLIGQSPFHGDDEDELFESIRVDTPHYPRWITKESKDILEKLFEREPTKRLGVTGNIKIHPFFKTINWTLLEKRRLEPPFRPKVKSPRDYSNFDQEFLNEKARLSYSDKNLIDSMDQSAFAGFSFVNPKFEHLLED
Chain of Calcium/calmodulin-dependent protein kinase type II subunit gamma (Q13555 whole entry): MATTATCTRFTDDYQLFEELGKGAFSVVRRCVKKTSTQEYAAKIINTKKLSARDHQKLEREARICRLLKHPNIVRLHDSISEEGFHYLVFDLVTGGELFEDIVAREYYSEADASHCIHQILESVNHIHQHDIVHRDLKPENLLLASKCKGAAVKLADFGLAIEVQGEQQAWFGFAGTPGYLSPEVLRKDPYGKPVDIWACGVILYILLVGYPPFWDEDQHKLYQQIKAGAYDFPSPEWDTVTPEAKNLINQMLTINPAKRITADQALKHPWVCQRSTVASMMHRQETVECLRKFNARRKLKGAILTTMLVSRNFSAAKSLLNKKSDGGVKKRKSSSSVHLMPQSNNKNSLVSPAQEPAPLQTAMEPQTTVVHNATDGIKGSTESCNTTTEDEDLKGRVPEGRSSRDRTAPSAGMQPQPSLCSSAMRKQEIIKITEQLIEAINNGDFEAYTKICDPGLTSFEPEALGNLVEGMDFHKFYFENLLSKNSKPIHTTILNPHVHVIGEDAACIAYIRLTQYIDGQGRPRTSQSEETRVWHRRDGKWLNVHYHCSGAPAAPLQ

Cc1cccc(N=Nc2ccc(O)c3ncccc23)c1
IC50 [1]: > 80 µM (inactive) | AC50 (INS1): 1.78 µM (active) | AC50 [2]: 3.91 µM (active) | EC50 [3]: 4.58 µM (active)

O=C1c2cccc3cccc(c23)C(=O)N1c1ccc2ncccc2c1
IC50 (Prothrombin): 82.1 µM (active) | IC50 [4]: 23.9 µM (active) | IC50 [5]: 23 µM (active)

CCCCC1(C)OC(=O)C(=Cc2ccc(N(CC)CC)cc2)C(=O)O1 (stereo not drawn)
EC50 [6]: > 300 µM (not active) | AC50 (Cytochrome P450 2C9): inconclusive | EC50 [7]: > 300 µM (not active) | EC50 [8]: 7.59 µM (active) | AC50 (Cytochrome P450 3A4): 0.126 µM (inconclusive)

Oc1ncccc1-c1nc2ccccc2n1Cc1cccc(Cl)c1
AC50 (CAAX prenyl protease 2): 5.23 µM (active)

Cc1ccccc1C(=O)N1CCN(c2ccc(NC(=O)c3ccc([N+](=O)[O-])o3)cc2)CC1
AC50 [9]: 9.76 µM (active) | EC50 [10]: 3.84 µM (active) | AC50 [11]: 0.864 µM (active) | AC50 [12]: 6.2 µM (active) | AC50 (A-375 [13]): > 35 µM (active) | AC50 (A-375 [14]): > 35 µM (active) | AC50 [15]: 1.8 µM (active) | AC50 [16]: 20.5 µM (active) | EC50 [17]: 3.14 µM (active)

C[C@@H](CN1CCC(n2c(=O)[nH]c3ccc(F)cc32)CC1)NC(=O)c1ccc(F)cc1
IC50 (Phospholipase D1): 0.002 µM (active) | IC50 (Phospholipase D2): 0.3 µM (active)

Cc1cc(C(=O)NCCOCCOCCN)ccc1-c1cccc2c(CCCOc3cccc4ccccc34)c(C(=O)O)[nH]c12
Ki (Aurora kinase B): 3.98 µM (active) | Ki [18]: 5.01 µM (active) | Ki [19]: 3.98 µM (active) | Ki [20]: 2.51 µM (active)

CC(C)(C)Oc1cc(-c2ccncc2)cc2[nH]nc(N)c12
Ki [21]: 0.398 µM (active) | Ki [22]: 1.58 µM (active) | Ki [23]: 0.0126 µM (active) | Ki [24]: 0.631 µM (active) | Ki [25]: 0.158 µM (active) | Ki [26]: 0.251 µM (active) | Ki [27]: 0.00251 µM (active) | Ki [28]: 0.251 µM (active)

COc1ccccc1N1CCN(C(=O)c2ccc([N+](=O)[O-])o2)CC1
EC50 [29]: 40.5 µM (active) | EC50 [30]: 24.3 µM (active)
